In US10195208B2, “Combination therapy” (Novartis AG, priority 2014, dated 2019):
Where “and” joins values, the source holds several entries; their conditions need not be identical. Equal values may be shown once.

Assays:
[1] = tested on: Compound A resistant NSCLC HCC827 tumor; assay: Efficacy study in Compound A resistant HCC827 mouse xenograft model (GNF-11-308-138); type: in vivo, SCID beige mice; conditions: for Individual tumor volume: single animals; for Tumor volume, group Mean: n=6; for Mean initial Tumor Volume (mm^3 ± SE): initial day of dosing
[2] = tested on: EGFR and cMET phosphorylation; assay: Acute PD western blot of pEGFR and pMET in resistant NCI-HCC827 tumors; type: in vivo, SCID beige mice; conditions: single dose; Compound A 30 mg/kg, INC280 10 mg/kg; tumors taken 6 hours post dose
Text: SCID beige mice bearing the Erlotinib resistant tumors (Animals 2-5), n=1 per group, a total of 4 groups and randomized 50 days post tumor fragment implantation with an average tumor volume of 1236.18 mm^3 and SD of 316.57 mm^3. Compound A resistant HCC827 tumors ([…]) were randomized into 4 groups (n=3 mice per group) 24 days post tumor fragment implantation with an average tumor volume of 963.24 mm^3 with SD 179.56 mm^3. Animals in each group received once daily oral administration of Compound A at 30 mg/kg or twice daily INC280-AA-3 at 10 mg/kg alone or in combination.
Evaluation of target inhibition of pEGFR and pMET were done by western blot analysis. 40 […] of tumor lysate proteins were electrophoresed per sample using Criterion 4-12% Bis-Tris gels (Bio-Rad, Cat #345-0124). Upon completion of protein transfer, membranes were incubated with 5% BSA (Sigma) in TBST (25 mM Tris, 150 mM NaCl, 0.1% Tween-20) for 1 h at room temperature to block non-specific binding. […]

[3] = Tolerability (body weight) in Compound A resistant HCC827 mouse xenograft model; conditions: for Final BW (g) mean ± SD: day 14; for BW (%) mean, percent body weight change: day 14 versus day of treatment initiation
Protocol: INC280-AA-3 was formulated in 0.25% MC (methylcellulose) 0.05% Tween 80 in water, solution. […] Animals were weighed on dosing days and doses were body weight adjusted. Tumor volumes were measured by digital caliper 3 times a week and body weights of all animals were recorded throughout the study.
Body weight was monitored daily and the % change in body weight was calculated as (BWcurrent−BWinitial)/(BWinitial)×100. Data is presented as percent body weight change from the day of treatment initiation.

HCC827 = assay: Cell proliferation assay (CellTiter-Glo), dose matrix combination, HCC827 parental; type: cell-based, human; conditions: HCC827 parental line, 72 hours
Protocol: HCC827 was obtained from ATCC. HCC827 GR5 (resistant to Gefitinib) was obtained from Jeff Engleman lab at Massachusetts General Hospital. Both cells were cultured in RPMI-1640 (ATCC, #30-2001) with 10% FBS (Thermo scientific, #SH30071.03) and maintained in a 37° C., 5% CO2 incubator. Cells were passaged twice a week using TrypLE™ Express (Invitrogen, #12604-013), an animal origin-free recombinant enzyme used for dissociating adherent mammalian cells compare to the regular trypsin.
Cell viability was determined by measuring cellular ATP content using the CellTiter-Glo® (CTG) luminescent cell viability assay (Promega #G7573) according to the manufacturer's protocol. […] At the end of the drug treatment, 100 ul CTG reagent was added to each well to lyse the cells, and luminescence signals were recorded in the Envision plate reader (Perkin Elmer).
To evaluate the combination effect in a non-bias way and to identify synergistic effect at all possible concentrations, the combination studies were conducted with a “dose matrix”, where a combination is tested in all possible permutations of serially-diluted compounds. […] The synergistic interaction was analyzed using Chalice software (CombinatoRx, Cambridge Mass.). Synergy was calculated by comparing a combination's response to those of its single agents, against the drug-with-itself dose-additive reference model. […]

[4] = day 0 post dosing (day 22 post implant)
[5] = day 2 post dosing (day 24 post implant)
[6] = day 5 post dosing (day 27 post implant)
[7] = day 7 post dosing (day 29 post implant)
[8] = day 9 post dosing (day 31 post implant)
[9] = day 12 post dosing (day 34 post implant)
[10] = day 14, Compound A 30 mg/kg QD, INC280 10 mg/kg BID, oral
[11] = day 14 post dosing (day 36 post implant)
[12] = Compound A 30 mg/kg QD, INC280 10 mg/kg BID, oral
[13] = Compound A 30 mg/kg QD, INC280 10 mg/kg BID

| SMILES | Individual tumor volume [1, 4] | Tumor volume, group Mean ([1]; day 0 post dosing) [mm^3] | Individual tumor volume [1, 5] | Tumor volume, group Mean ([1]; day 2 post dosing) [mm^3] | Individual tumor volume [1, 6] | Tumor volume, group Mean ([1]; day 5 post dosing) [mm^3] | Individual tumor volume [1, 7] | Tumor volume, group Mean ([1]; day 7 post dosing) [mm^3] | Individual tumor volume [1, 8] | Tumor volume, group Mean ([1]; day 9 post dosing) [mm^3] | Individual tumor volume [1, 9] | Tumor volume, group Mean ([1]; day 12 post dosing) [mm^3] | Mean final Tumor Volume (mm^3 ± SE) [1, 10] [mm^3] | Individual tumor volume [1, 11] | Tumor volume, group Mean ([1]; day 14 post dosing) [mm^3] | Mean initial Tumor Volume (mm^3 ± SE) [1, 12] [mm^3] | inhibition of EGFR and cMET phosphorylation in tumor lysates (western) [2] | Final BW (g) mean ± SD [3, 13] [g] | BW (%) mean, percent body weight change [3] [%] | Initial BW (g) mean ± SD [3, 13] [g] | also measured |
| --- | --- | --- | --- | --- | --- | --- | --- | --- | --- | --- | --- | --- | --- | --- | --- | --- | --- | --- | --- | --- | --- |
| CNC(=O)c1ccc(-c2cnc3ncc(Cc4ccc5ncccc5c4)n3n2)cc1F [INC280, 2-fluoro-N-methyl-4-[(7-quinolin-6-yl-methyl)-imidazo[1,2-b]triazin-2-yl]benzamide] | 456.20 mm^3 and 520.06 mm^3 and 543.63 mm^3 and 640.13 mm^3 and 655.67 mm^3 and 713.33 mm^3 | 588.17 | 531.11 mm^3 and 641.24 mm^3 and 502.64 mm^3 and 784.24 mm^3 and 667.19 mm^3 and 674.14 mm^3 | 633.43 | 869.50 mm^3 and 753.37 mm^3 and 556.93 mm^3 and 822.50 mm^3 and 628.26 mm^3 and 834.83 mm^3 | 744.23 | 690.94 mm^3 and 653.24 mm^3 and 589.97 mm^3 and 675.03 mm^3 and 699.40 mm^3 and 627.01 mm^3 | 655.93 | 646.47 mm^3 and 649.16 mm^3 and 572.94 mm^3 and 510.69 mm^3 and 613.71 mm^3 and 594.99 mm^3 | 597.99 | 688.69 mm^3 and 617.11 mm^3 and 487.07 mm^3 and 531.80 mm^3 and 432.97 mm^3 and 585.67 mm^3 | 557.22 | 760.84 ± 81.62 | 1030.71 mm^3 and 948.57 mm^3 and 521.81 mm^3 and 674.65 mm^3 and 598.62 mm^3 and 790.69 mm^3 | 760.84 | 588.17 ± 39.56 | selective depletion of pEGFR and pMET expression | 19.95 ± 1.58 | −3.83 | 20.74 ± 0.79 | Mean T/C (percent treated versus control; negative = regression) [1, 10]: 23%; tolerability in words ([3]; 14 day treatment, Compound A 30 mg/kg QD, INC280 10 mg/kg BID): well tolerated for rest of the study; group body weight change ([3]; day 7): −8.5%; group body weight change ([3]; day 8): −5.66% |
| Cc1cc(C(=O)Nc2nc3cccc(Cl)c3n2[C@@H]2CCCCN(C(=O)/C=C/CN(C)C)C2)ccn1 [Compound A, (R,E)-N-(7-chloro-1-(1-(4-(dimethylamino)but-2-enoyl)azepan-3-yl)-1H-benzo[d]imidazol-2-yl)-2-methylisonicotinamide] | 470.34 mm^3 and 502.24 mm^3 and 547.37 mm^3 and 597.98 mm^3 and 657.77 mm^3 and 694.21 mm^3 | 578.32 | 425.76 mm^3 and 474.70 mm^3 and 500.47 mm^3 and 718.94 mm^3 and 679.81 mm^3 and 723.63 mm^3 | 587.22 | 447.17 mm^3 and 509.01 mm^3 and 478.72 mm^3 and 709.28 mm^3 and 723.82 mm^3 and 730.32 mm^3 | 599.72 | 641.63 mm^3 and 591.63 mm^3 and 523.15 mm^3 and 792.15 mm^3 and 837.06 mm^3 and 800.58 mm^3 | 697.70 | 595.65 mm^3 and 822.67 mm^3 and 611.23 mm^3 and 877.37 mm^3 and 891.82 mm^3 and 940.84 mm^3 | 789.93 | 932.76 mm^3 and 885.77 mm^3 and 742.37 mm^3 and 1125.55 mm^3 and 1019.63 mm^3 and 1028.22 mm^3 | 955.72 | 1063.26 ± 93.45 | 882.62 mm^3 and 1115.99 mm^3 and 727.98 mm^3 and 1076.46 mm^3 and 1368.14 mm^3 and 1208.36 mm^3 | 1063.26 | 578.32 ± 35.84 | selective depletion of pEGFR and pMET expression | 22.58 ± 1.00 | 5.39 | 21.43 ± 0.77 | anti-tumor activity in words ([1]; 14 days, Compound A 30 mg/kg QD, INC280 10 mg/kg BID, oral, versus vehicle): not significantly different from vehicle; single agent response, cell viability (HCC827): only respond to Compound A |
